Reference: the NIST ThermoML archive (doi:10.1021/je034087q)
± gives the expanded uncertainty stated by the source.

Test: xn = mol fraction of the nth substance listed
Settings: 323.15 K, Fluid (supercritical or subcritical phases)

## CC(C)=O [acetone] + O=C=O
9680 kPa, x2 = 0.952
  mass density: 588 ± 4 kg/m3
9710 kPa, x2 = 0.902
  mass density: 707 ± 4 kg/m3
9750 kPa, x2 = 0.933
  mass density: 656 ± 4 kg/m3
9750 kPa, x2 = 0.952
  mass density: 594 ± 4 kg/m3
9840 kPa, x2 = 0.948
  mass density: 625 ± 4 kg/m3
9850 kPa, x2 = 0.952
  mass density: 603 ± 4 kg/m3
9870 kPa, x2 = 0.902
  mass density: 711 ± 4 kg/m3
9900 kPa, x2 = 0.811
  mass density: 790 ± 5 kg/m3
9900 kPa, x2 = 0.882
  mass density: 743 ± 5 kg/m3
9900 kPa, x2 = 0.933
  mass density: 664 ± 4 kg/m3
9940 kPa, x2 = 0.952
  mass density: 611 ± 4 kg/m3
9960 kPa, x2 = 0.772
  mass density: 803 ± 5 kg/m3
10020 kPa, x2 = 0.902
  mass density: 715 ± 4 kg/m3
10030 kPa, x2 = 0.948
  mass density: 638 ± 4 kg/m3
10050 kPa, x2 = 0.933
  mass density: 669 ± 4 kg/m3
10100 kPa, x2 = 0.952
  mass density: 623 ± 4 kg/m3
10160 kPa, x2 = 0.902
  mass density: 719 ± 4 kg/m3
10220 kPa, x2 = 0.933
  mass density: 678 ± 4 kg/m3
10290 kPa, x2 = 0.882
  mass density: 748 ± 5 kg/m3
10290 kPa, x2 = 0.948
  mass density: 651 ± 4 kg/m3
10320 kPa, x2 = 0.952
  mass density: 636 ± 4 kg/m3
10360 kPa, x2 = 0.902
  mass density: 722 ± 5 kg/m3
10420 kPa, x2 = 0.933
  mass density: 684 ± 4 kg/m3
10440 kPa, x2 = 0.576
  mass density: 818 ± 5 kg/m3
10490 kPa, x2 = 0.811
  mass density: 796 ± 5 kg/m3
10540 kPa, x2 = 0.772
  mass density: 807 ± 5 kg/m3
10570 kPa, x2 = 0.902
  mass density: 727 ± 5 kg/m3
10590 kPa, x2 = 0.952
  mass density: 649 ± 4 kg/m3
10600 kPa, x2 = 0.948
  mass density: 666 ± 4 kg/m3
10630 kPa, x2 = 0.882
  mass density: 754 ± 5 kg/m3
10640 kPa, x2 = 0.933
  mass density: 693 ± 4 kg/m3
10780 kPa, x2 = 0.902
  mass density: 733 ± 5 kg/m3
10800 kPa, x2 = 0.186
  mass density: 785 ± 5 kg/m3
10880 kPa, x2 = 0.933
  mass density: 699 ± 4 kg/m3
10920 kPa, x2 = 0.952
  mass density: 663 ± 4 kg/m3
10950 kPa, x2 = 0.882
  mass density: 761 ± 5 kg/m3
10980 kPa, x2 = 0.948
  mass density: 679 ± 4 kg/m3
10990 kPa, x2 = 0.811
  mass density: 801 ± 5 kg/m3
11000 kPa, x2 = 0.902
  mass density: 736 ± 5 kg/m3
11060 kPa, x2 = 0.772
  mass density: 811 ± 5 kg/m3
11160 kPa, x2 = 0.933
  mass density: 707 ± 4 kg/m3
11260 kPa, x2 = 0.902
  mass density: 740 ± 5 kg/m3
11280 kPa, x2 = 0.952
  mass density: 678 ± 4 kg/m3
11440 kPa, x2 = 0.882
  mass density: 764 ± 5 kg/m3
11460 kPa, x2 = 0.933
  mass density: 714 ± 4 kg/m3
11480 kPa, x2 = 0.811
  mass density: 805 ± 5 kg/m3
11480 kPa, x2 = 0.948
  mass density: 696 ± 4 kg/m3
11500 kPa, x2 = 0.902
  mass density: 744 ± 5 kg/m3
11640 kPa, x2 = 0.383
  mass density: 806 ± 5 kg/m3
11760 kPa, x2 = 0.772
  mass density: 815 ± 5 kg/m3
11760 kPa, x2 = 0.902
  mass density: 751 ± 5 kg/m3
11780 kPa, x2 = 0.952
  mass density: 694 ± 4 kg/m3
11800 kPa, x2 = 0.933
  mass density: 724 ± 5 kg/m3
11870 kPa, x2 = 0.576
  mass density: 825 ± 5 kg/m3
11870 kPa, x2 = 0.882
  mass density: 769 ± 5 kg/m3
